Measurements published in patent US10093656B2, “Fused-ring or tricyclic aryl pyrimidine compound used as kinase inhibitor” (NANJING SANHOME PHARMACEUTICAL CO., LTD, priority 2015, dated 2018).

Key:
EGFR d746-750/T790M = target: T1, EGFR d746-750/T790M (Homo sapiens, UniProt P00533, DEL746-750/T790M); assay: EGFR d746-750/T790M enzyme HTRF inhibition assay; format: biochemical; conditions: 40 μM ATP
T1 construct: purchased Carna Biosciences (Japan)
Procedure, shortened: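 0.025 nM enzyme with 1 μM biotin-TK1 peptide and 40 μM ATP, 60 min at 23° C; compound tested at 10 doses, 300 nM to 0.015 nM final. HTRF read (Eu-anti-TK1 antibody 2 nM, XL665 62.5 nM, 60 min at 23° C); IC50 from four-parameter fit of % inhibition.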

EGFR wild type = target: T2, EGFR wild type (Homo sapiens, UniProt P00533); assay: Wild-type EGFR enzyme HTRF inhibition assay; format: biochemical; conditions: 25 μM ATP, read-out: EGFR WT IC50
T2 construct: purchased Life technology (Madison, Wis.)
T2 sequence (P00533 25-1210): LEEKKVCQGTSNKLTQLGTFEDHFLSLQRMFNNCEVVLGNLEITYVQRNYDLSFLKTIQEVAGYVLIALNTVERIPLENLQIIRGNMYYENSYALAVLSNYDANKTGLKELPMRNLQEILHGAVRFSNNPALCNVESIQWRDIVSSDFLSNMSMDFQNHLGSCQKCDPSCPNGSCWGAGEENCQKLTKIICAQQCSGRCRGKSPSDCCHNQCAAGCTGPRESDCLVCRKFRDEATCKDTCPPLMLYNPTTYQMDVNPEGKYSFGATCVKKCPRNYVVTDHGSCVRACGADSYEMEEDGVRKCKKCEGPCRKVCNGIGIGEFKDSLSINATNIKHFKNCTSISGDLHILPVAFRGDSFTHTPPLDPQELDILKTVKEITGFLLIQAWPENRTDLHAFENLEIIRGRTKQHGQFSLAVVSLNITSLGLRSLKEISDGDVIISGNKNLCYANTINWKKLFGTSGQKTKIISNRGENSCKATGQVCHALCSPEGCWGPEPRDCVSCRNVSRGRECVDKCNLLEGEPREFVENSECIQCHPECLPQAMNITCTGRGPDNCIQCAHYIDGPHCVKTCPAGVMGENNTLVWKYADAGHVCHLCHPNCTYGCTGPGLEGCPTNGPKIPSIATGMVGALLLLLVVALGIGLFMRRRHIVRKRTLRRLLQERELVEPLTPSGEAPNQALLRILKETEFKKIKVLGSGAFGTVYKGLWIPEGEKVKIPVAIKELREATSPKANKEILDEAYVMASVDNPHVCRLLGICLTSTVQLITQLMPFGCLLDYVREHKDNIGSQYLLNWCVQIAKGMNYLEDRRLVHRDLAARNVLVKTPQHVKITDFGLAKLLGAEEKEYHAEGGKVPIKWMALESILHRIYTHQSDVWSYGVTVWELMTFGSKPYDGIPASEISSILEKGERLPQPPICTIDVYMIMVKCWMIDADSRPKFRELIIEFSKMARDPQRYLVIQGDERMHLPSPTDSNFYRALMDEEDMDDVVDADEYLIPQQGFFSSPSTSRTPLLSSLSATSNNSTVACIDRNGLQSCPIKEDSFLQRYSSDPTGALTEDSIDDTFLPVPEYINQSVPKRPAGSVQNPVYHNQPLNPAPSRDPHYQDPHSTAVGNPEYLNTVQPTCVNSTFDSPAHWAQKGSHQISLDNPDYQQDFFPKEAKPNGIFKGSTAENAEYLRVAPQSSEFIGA
Procedure, shortened: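 HTRF with 0.05 nM wild-type EGFR, 1 μM biotin-TK1 peptide, 25 μM ATP, 60 min at 23° C; detected with Eu-anti-TK1 antibody 2 nM and XL665 62.5 nM, 60 min at 23° C. Ten 3-fold doses, 300 nM to 0.015 nM final; IC50 by four-parameter fit of % inhibition.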

[1] = tested on: NCI-H1975 cells EGFR L858R/T790M; assay: NCI-H1975 cell viability assay (Cell Titer-Glo, 6 days); format: cell-based; conditions: Homo sapiens, 144 h
Procedure, shortened: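 A431 (EGFR WT) and NCI-H1975 (EGFR L858R/T790M) cells treated for 6 days at 37° C, in duplicate with 10 three-fold doses from 10 μM to 0.508 nM final. Viability read as CellTiter-Glo luminescence. IC50 from four-parameter fit of % inhibition.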

[2] = tested on: human skin squamous cell A431 xenograft (CDX); assay: Selectivity study in vivo, A431 xenograft (CDX) model; design: species or system BALB/c nude mice; conditions: Table 5 experiment, AZD9291 5 mg/kg
Procedure: In this model, the less inhibitory effect on the tumor, the better the selectivity in vivo.
The selective experiments in vivo were performed on BALB/c nude mice that subcutaneously implanted human skin squamous cell A431 xenograft (CDX).
BALB/c nude mice, female, 6-8 weeks, weighted about 18-20 grams, the mice were kept in a special pathogen-free environment and in a single ventilation cage (5 mice per cage). The bedding and water of all the cages were disinfected before use. All animals were free to obtain standard certified commercial laboratory diets. All mice were purchased from mice of Shanghai BK Laboratory Animal Co., LTD for research. The tumor tissue (20-30 mm^3) was implanted subcutaneously in the […] of each mouse for tumor growth. The experiment was started when the average tumor volume reached about 150-200 mm^3. The test compound was orally administered (compounds 17, 30, 37 and 38 were administered once daily at 20 mg/kg, the compound AZD9291 was administered once daily at 5 mg/kg, the compound CO-1686 was administered twice daily at 50 mg/kg, the compound Erlotinib was administered once daily at 75 mg/kg and the compound Afatinib was administered once daily at 7.5 mg/kg, 21 days of continuous administration. The data were shown in Table 4; compounds 33, 34, 40, 42 and 43 were administered once daily at 20 mg/kg and compound AZD9291 was administered once daily at5 mg/kg, 21 days of continuous administration. The tumor volume was measured twice a week with a two-dimensional caliper and the volume was measured in cubic millimeters and calculated by the following formula: V=V=0.5 a×b2, where a and b were the major and minor diameters of the tumor, respectively.

T1 sequence (P00533 with tags, fused parts or gaps DEL746-750/T790M limits assumed): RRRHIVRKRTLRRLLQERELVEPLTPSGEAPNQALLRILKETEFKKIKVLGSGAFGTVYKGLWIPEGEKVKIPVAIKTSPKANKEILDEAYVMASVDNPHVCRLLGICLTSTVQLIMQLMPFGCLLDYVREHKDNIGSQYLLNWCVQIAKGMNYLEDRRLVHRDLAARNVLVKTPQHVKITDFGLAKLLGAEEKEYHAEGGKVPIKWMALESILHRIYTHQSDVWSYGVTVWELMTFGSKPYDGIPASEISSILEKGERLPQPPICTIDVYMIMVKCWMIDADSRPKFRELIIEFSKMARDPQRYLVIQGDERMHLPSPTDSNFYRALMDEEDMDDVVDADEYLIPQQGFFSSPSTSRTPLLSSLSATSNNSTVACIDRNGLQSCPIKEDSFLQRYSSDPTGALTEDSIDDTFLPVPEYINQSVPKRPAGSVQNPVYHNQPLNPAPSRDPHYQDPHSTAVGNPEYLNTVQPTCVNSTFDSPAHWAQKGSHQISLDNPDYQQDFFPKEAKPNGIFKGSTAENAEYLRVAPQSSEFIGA

Work on `C=CC(=O)Nc1cc(Nc2ncc(F)c(-c3c4n(c5cc(F)ccc35)CCOC4)n2)c(OC)cc1N(C)CCN(C)C` [Embodiment 33, N-(2-((2-(Dimethylamino)ethyl)(methyl)amino)-5-((5-fluoro-4-(7-fluoro-3,4-dihydro-1H-[1,4]oxazino[4,3-a]indol-10-yl)pyrimidin-2-yl)amino)-4-methoxyphenyl)acrylamide] yielded an IC50 (EGFR d746-750/T790M) of 0.4 nM, an IC50 (EGFR wild type) of 2.6 nM and an IC50 [1] of 90 nM. For the same molecule, the “Tumor Volume (mm^3) 4 days” value ([2]; day 4, oral once daily: 33, 34, 40, 42, 43 20 mg/kg) was 202 mm^3, the “Tumor Volume (mm^3) 11 days” value ([2]; day 11, oral once daily: 33, 34, 40, 42, 43 20 mg/kg) was 428 mm^3 and the “Tumor Volume (mm^3) 18 days” value ([2]; day 18, oral once daily: 33, 34, 40, 42, 43 20 mg/kg) was 930 mm^3.
